Assay results taken from BindingDB's records for doi:10.1016/j.bmcl.2007.02.040 (Merck Research Laboratories, 2007).

Target: Dipeptidyl peptidase 4 (Homo sapiens, UniProt P27487)
Assay: Dipeptidyl Peptidase Inhibition Assay
Settings: pH 7.5; 37 °C

Dipeptidyl peptidase 4, sequence (P27487 whole entry): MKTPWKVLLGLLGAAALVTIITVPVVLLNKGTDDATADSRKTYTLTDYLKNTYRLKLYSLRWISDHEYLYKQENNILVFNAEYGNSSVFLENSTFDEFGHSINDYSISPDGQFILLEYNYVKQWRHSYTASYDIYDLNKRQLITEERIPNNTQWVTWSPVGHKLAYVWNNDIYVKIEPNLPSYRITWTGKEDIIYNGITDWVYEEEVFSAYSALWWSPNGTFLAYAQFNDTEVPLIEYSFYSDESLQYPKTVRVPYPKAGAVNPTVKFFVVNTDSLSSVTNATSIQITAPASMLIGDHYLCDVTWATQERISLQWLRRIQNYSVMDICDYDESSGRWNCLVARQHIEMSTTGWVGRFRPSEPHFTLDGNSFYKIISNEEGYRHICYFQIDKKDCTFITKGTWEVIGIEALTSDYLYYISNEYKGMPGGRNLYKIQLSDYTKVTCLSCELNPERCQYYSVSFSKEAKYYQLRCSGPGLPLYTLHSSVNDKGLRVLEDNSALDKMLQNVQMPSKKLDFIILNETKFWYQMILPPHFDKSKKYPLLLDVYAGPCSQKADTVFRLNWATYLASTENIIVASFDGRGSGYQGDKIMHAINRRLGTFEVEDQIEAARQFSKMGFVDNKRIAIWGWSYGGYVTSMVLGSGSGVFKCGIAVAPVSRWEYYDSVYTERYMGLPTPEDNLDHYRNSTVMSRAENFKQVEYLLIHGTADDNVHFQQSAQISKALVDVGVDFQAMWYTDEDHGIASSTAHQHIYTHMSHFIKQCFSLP

| SMILES | IC50 [µM] |
| --- | --- |
| CC(C)[C@H](Oc1ccc(CNC(=O)[C@@H]2CCCN2C(=O)C[C@H](N)Cc2c(F)c(F)c(F)c(F)c2F)cc1)C(=O)O [(2S)-2-[4-({[(2S)-1-[(3R)-3-amino-4-(2,3,4,5,6-pentafluorophenyl)butanoyl]pyrrolidin-2-yl]formamido}methyl)phenoxy]-3-methylbutanoic acid] | 0.008 |
| C[C@H](C(=O)N1CCOCC1)[C@@H](C(=O)N(C)C)c1ccc(-c2ccc(F)cc2)cc1 [(2R,3S)-2-[4-(4-fluorophenyl)phenyl]-N,N,3-trimethyl-4-(morpholin-4-yl)-4-oxobutanamide] | 0.52 |
